Each structure is given as a SMILES string.

This note sets out measurements from ChEMBL document CHEMBL4118099, “Targeting Transcriptional Enhanced Associate Domains (TEADs)” (J Med Chem, 2018).

The target of assay [1] is Transcriptional enhancer factor TEF-3 (Homo sapiens, UniProt Q15561). The assay can be described thus: Binding affinity to human His-tagged TEAD4 YBD (217 to 434 residues) expressed in Escherichia coli BL21(DE3) after 30 mins by ITC assay. A general note: Isothermal titration calorimetry measures the heat released or taken up as one component is titrated into another.
Transcriptional enhancer factor TEF-3, sequence (Q15561 whole entry, the tested form may be a part): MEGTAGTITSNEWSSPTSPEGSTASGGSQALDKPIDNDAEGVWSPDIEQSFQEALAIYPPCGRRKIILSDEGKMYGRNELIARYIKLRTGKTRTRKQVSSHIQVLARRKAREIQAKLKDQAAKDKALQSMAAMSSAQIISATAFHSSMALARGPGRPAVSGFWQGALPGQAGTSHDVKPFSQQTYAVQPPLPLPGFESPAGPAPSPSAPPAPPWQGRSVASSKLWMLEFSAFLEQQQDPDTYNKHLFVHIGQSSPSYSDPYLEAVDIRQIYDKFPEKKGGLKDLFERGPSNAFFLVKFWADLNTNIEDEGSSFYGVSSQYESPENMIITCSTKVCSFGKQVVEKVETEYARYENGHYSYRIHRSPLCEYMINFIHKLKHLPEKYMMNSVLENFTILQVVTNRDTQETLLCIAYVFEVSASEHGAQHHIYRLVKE
Assay [2] has as its target T1, Transcriptional enhancer factor TEF-1 (Homo sapiens, UniProt P28347). The assay can be described thus: Binding affinity to human GST-tagged TEAD1 (194 to 411) expressed in Escherichia coli BL21(DE3) by SPR assay. In general terms: In SPR one partner is held on a chip, and binding of the other changes the refractive index at the surface.
Assay [3] deals with T1, Transcriptional enhancer factor TEF-1. The assay can be described thus: Inhibition of human His-tagged YAP (50 to 171 residues) interaction with human GST-tagged TEAD1 (194 to 411) expressed in Escherichia coli BL21(DE3) incubated for 30 mins measured by SPR assay.

T1 sequence (P28347 whole entry, the tested form may be a part): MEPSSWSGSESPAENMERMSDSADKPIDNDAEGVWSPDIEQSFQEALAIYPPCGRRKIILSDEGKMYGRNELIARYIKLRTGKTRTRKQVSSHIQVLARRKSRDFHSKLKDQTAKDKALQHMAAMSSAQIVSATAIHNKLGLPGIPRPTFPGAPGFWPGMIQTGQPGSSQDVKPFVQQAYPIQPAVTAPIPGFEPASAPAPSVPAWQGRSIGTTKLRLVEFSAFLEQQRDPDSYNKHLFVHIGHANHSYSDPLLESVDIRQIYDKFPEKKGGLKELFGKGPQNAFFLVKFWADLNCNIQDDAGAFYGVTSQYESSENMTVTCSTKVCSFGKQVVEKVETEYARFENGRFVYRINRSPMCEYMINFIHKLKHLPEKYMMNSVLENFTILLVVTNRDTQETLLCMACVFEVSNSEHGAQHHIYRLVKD

As for `O=C(O)c1cccnc1Nc1cccc(C(F)(F)F)c1` [NIFLUMIC ACID], the Kd in assay [1] was determined as 28000 nM.

Turning to `CCCC[C@@H]1NC(=O)[C@H](CCCCN)NC(=O)[C@H](CCCNC(=N)N)NC(=O)[C@H](CC(C)C)NC(=O)[C@@H](NC(=O)[C@H](Cc2cccc(Cl)c2)N[C@H](C)[C@@H]2CCCN2C(=O)[C@@H](NC(C)=O)C(C)C)CCSSC[C@@H](C(=O)N[C@@H](CCCCN)C(=O)N2CCC[C@H]2C(=O)N2CCC[C@H]2C(=O)N[C@@H](CCC(=O)O)C(N)=O)NC(=O)[C@@H](Cc2ccccc2)NC(=O)[C@H](CO)NC(=O)[C@H](C)NC(=O)[C@@H]2CCCN2C1=O`, the Kd in assay [2] is 15 nM. The IC50 in assay [3] was 25 nM.

The Kd is the equilibrium constant for the complex coming apart. As a reminder, the IC50 is the concentration that inhibits the measured activity by half.
